The nature of experiment [1]: Inhibition of TGF-beta induced activation of human MRC5 cells assessed as residual BRD4 protein level at 10 uM by Western blot analysis (reference value: 100%). The class given is functional. On the technique in general: Immunoblotting shows a protein as a band on a membrane.
In experiment [2] the target is T1, Protein cereblon/Bromodomain-containing protein 4 (Homo sapiens) (UniProt O60885+Q96SW2). In words: Protac activity at CRBN/BRD4 in human MM1.S cells assessed as induction of BRD4 protein degradation by measuring residual activity at 0.01 uM incubated for 3 hrs by Western blot analysis relative to control. Type of experiment: cell-based.
Experiment [3] addresses T1, Protein cereblon/Bromodomain-containing protein 4 (Homo sapiens). The experiment can be described thus: Protac activity at CRBN/BRD4 in human MV4-11 cells assessed as induction of BRD4 protein degradation by measuring residual activity at 30 nM preincubated with tert-butyl (S)-2-(4-(4-chlorophenyl)-2,3,9-trimethyl-6H-thieno[3,2-f][1,2,4]triazolo[4,3-a][1,4]diazepin-6-yl)acetate for 2 hrs followed by compound addition and measured after 6 hrs by Western blot analysis (reference value: 100%). Type of experiment: cell-based.

For experiment [4] the target is unchanged. In words: Protac activity at CRBN/BRD4 in human MM1.S cells assessed as induction of BRD4 protein degradation by measuring residual activity at 100 nM measured after 6 hrs by Western blot analysis (reference value: 100%). The class given is cell-based.
In the next experiment the test system is MM1.S. The experiment can be described thus: Antiproliferative activity against human MM1.S cells assessed as inhibition of cell growth incubated for 72 hrs MTS assay. The class given is functional, cell-based. In general terms: Tetrazolium dyes change colour on reduction, which living cells bring about.
Experiment [5] addresses T1, Protein cereblon/Bromodomain-containing protein 4 (Homo sapiens). In words: Protac activity at CRBN/BRD4 in human MM1.S cells assessed as induction of BRD4 protein degradation by measuring residual activity at 300 nM measured after 6 hrs by Western blot analysis (reference value: 100%). The class given is cell-based.
The target is the same in experiment [6]. In words: Protac activity at CRBN/BRD4 in human MV4-11 cells assessed as induction of BRD4 protein degradation by measuring residual activity at 30 nM measured immediately by Western blot analysis (reference value: 100%). The class given is cell-based.
The target is the same in experiment [7]. The experiment can be described thus: Protac activity at CRBN/BRD4 in human MM1.S cells assessed as induction of BRD4 protein degradation by measuring residual activity at 300 nM measured after 9 hrs by Western blot analysis (reference value: 317%). The class given is cell-based.
The target is the same in experiment [8]. The experiment can be described thus: Protac activity at CRBN/BRD4 in human MV4-11 cells assessed as induction of BRD4 protein degradation by measuring residual activity at 1 nM measured after 6 hrs by Western blot analysis (reference value: 100%). Type of experiment: cell-based.
For experiment [9] the target is unchanged. The experiment can be described thus: Protac activity at CRBN/BRD4 in human MM1.S cells assessed as downregulation of MYC protein expression at […] incubated for 3 hrs by Western blot analysis. Type of experiment: cell-based.
Experiment [10] has the same target. The experiment can be described thus: Protac activity at CRBN/BRD4 in human MV4-11 cells assessed as induction of BRD4 protein degradation by measuring residual activity at 30 nM measured after 9 hrs by Western blot analysis (reference value: 100%). Type of experiment: cell-based.

Active and inactive are the calls of the source. The rule behind the calls is not given here.

T1 sequence (Q96SW2 whole entry, looked up, other chains not shown): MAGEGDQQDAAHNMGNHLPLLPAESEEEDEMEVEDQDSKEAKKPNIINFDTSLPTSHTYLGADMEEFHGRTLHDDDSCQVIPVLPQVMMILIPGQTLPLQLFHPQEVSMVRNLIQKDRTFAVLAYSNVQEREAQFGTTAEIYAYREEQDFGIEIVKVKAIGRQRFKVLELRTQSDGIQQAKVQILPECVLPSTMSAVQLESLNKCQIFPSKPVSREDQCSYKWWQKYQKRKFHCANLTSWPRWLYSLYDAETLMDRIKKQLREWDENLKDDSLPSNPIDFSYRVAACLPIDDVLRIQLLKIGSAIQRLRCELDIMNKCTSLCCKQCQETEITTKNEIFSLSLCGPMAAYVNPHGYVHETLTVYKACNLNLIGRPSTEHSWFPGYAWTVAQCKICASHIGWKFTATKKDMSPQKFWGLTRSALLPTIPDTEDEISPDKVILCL

By IC50 is commonly meant the concentration needed to halve the response being measured. As for `Cc1sc2c(c1C)C(c1ccc(Cl)cc1)=N[C@@H](CC(=O)NCCCCC(=O)NCCNc1cccc3c1C(=O)N(C1CCC(=O)NC1=O)C3=O)c1nnc(C)n1-2` (stereo partly specified), the Activity is 25% in experiment [1]; 93% in experiment [2]; 84% in [3]; 24% in experiment [4]; 17% in experiment [5]; 110% in experiment [6]. For the same compound, the Activity in experiment [7] stood at 50%; in experiment [8], 107%; in experiment [10], 49%. The 50% inhibitory concentration (IC50) in the experiment with MM1.S was found to be 27 nM. Also, the outcome in experiment [9] was inactive.

These data come from ChEMBL document CHEMBL5236646, “Design, synthesis, and biological evaluation of BRD4 degraders” (Bioorg Med Chem, 2023).
